Columns and labels:
P. vivax MSP142 = target: T1, P. vivax MSP142 (Plasmodium vivax, UniProt Q02569, A1444G/T1362K/T1451N); experiment: isothermal titration calorimetry; assay type: binding
T1 sequence (Q02569 1325-1704 T1362K/A1444G/T1451N): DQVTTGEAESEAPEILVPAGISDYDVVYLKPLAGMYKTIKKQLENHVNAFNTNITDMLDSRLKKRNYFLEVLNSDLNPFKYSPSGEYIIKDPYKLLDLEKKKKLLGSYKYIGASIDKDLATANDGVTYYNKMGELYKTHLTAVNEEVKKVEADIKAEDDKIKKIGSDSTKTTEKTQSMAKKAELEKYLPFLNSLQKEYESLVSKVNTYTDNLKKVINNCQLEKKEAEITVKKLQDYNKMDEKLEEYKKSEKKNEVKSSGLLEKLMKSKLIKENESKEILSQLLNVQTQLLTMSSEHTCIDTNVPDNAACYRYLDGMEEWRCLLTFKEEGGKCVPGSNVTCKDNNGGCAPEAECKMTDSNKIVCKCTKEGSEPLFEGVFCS
Description: The MSP142 protein from P. vivax was cloned into plasmid jmp28, a modified pET-28 vector that encodes an N-terminal peptide MHHHHHHIEGRWIL immediately upstream of the inserted sequence. P. vivax (Belem strain) DNA was used as a template for PCR based cloning. The sequence of the expressed protein (following the vector encoded N-terminal peptide) corresponded to residues Asp 1325 to Ser 1704, Accession number A39401.
The protein was expressed in BL21(DE3)pLysS cells by induction of a culture at an OD600 of 0.6-0.8 with IPTG at a final concentration of 1 mM. The cells were induced for 3 h at 37° C. and then harvested by centrifugation. The cells were lysed using the Bugbuster protein extraction reagent (Novagen), after centrifugation of the cell lysate, the pellet containing the MSP142 was dissolved in 6M Guanidine-HCl, 100 mM Na2HPO4, 10 mM Tris-HCl, pH 8.0. This was applied to a Ni-NTA column, washed with 10 column volumes of the loading buffer, followed by 6 column volumes of 8 M Urea, 100 mM Na2HPO4, 10 mM Tris-HCl, at pH 7.0, and 6 column volumes at pH 6.1. The protein was eluted in 3 column volumes 8 M Urea, 100 mM Na2HPO4, 10 mM Tris-HCl, pH 4.3. […]
In addition to the fluorimetry, isothermal titration calorimetry (ITC) was performed using a Microcal omega VP-ITC (MicroCal Inc., Northampton, Mass.). […] The heat of dilution of suramin into buffer was determined in control experiments. […]

MSP142 = MSP142 (Plasmodium falciparum, UniProt Q8I0U8); experiment: titration of fluorescent analogues against MSP142; assay type: binding
Method: Analogues 258, 261, 264 and 266 were titrated against (a) PBS buffer only, (b) 0.1 mg/ml bovine serum albumin in PBS or (c) 0.1 mg/ml MSP142 in PBS. Fluorescence observed was compared to naphthalenetrisulphate (non-specific reagent) and suramin.

P. vivax MSP133 = experiment: binding of suramin by fluorimetry
Method: P. vivax MSP133 was expressed using the P. vivax MSP142 clone, above, as a template for PCR, followed by ligation of the product into vector pET30Xa/LIC. The sequence runs from Asp 1325 to Ser 1618 (Accession number A39401) following the N-terminal purification tag. The vector was used to transform BL21(DE3)pLysS cells. For expression, a culture of the transformed cells was induced at an OD600 of 0.6-0.8 at 37° C. with 1 mM IPTG for 3 h. The cells were harvested by centrifugation and the cell pellet lysed using the Bugbuster protein extraction reagent (Novagen). The cell lysate was cleared by centrifugation and the supernatant loaded directly onto a Ni-NTA column. […]
The intrinsic fluorescence of suramin was used to determine its capacity to bind to the various MSP1-derived proteins. The fluorescence was measured using a Perkin Elmer LS-3B or a Spex Fluoro Max 2 fluorimeter. Suramin was excited at a wavelength of 315 or 330 nm with 2.5 nm resolution, the emission spectra were measured at wavelengths ranging from 350-450 nm. Suramin and the MSP1 proteins were diluted in 20 mM NaH2PO4, 150 mM NaCl at pH 7.2 and analysed at 10 or 20° C. […] The Kd for the suramin-MSP1 binding was determined from three independent experiments.

In the case of Cc1ccc(C(=O)Nc2ccc(S(=O)(=O)O)c3cc(S(=O)(=O)O)cc(S(=O)(=O)O)c23)cc1NC(=O)c1cccc(NC(=O)Nc2cccc(C(=O)Nc3cc(C(=O)Nc4ccc(S(=O)(=O)O)c5cc(S(=O)(=O)O)cc(S(=O)(=O)O)c45)ccc3C)c2)c1 [suramin], the Kd (P. vivax MSP142) is reported as 0.3 ± 0.1 µM, the AH value (P. vivax MSP142; ITC, 25° C.) is reported as 11 ± 1 kcal/mol and the EC50 (MSP142) is reported as ~2 µM. The “fluorescence in the presence of MSP142” value (MSP142; 0.1 mg/ml MSP142 in PBS, 0.01-200 μM) was “became fluorescent in the presence of MSP142 specifically” and the “enhancement of intrinsic suramin fluorescence on binding” value (P. vivax MSP133) was “large binding-induced enhancements”.

Reference: patent publication US20070003987A1, “Screening method for substance binding to merozoite surface protein-1/42” (priority 2003, published 2007)
